Measured values reported in patent publication US5110935A, “New compounds which are active against the tissue forms of malaria and method of preparation” (Ire-Celltarg, S.A., priority 1988, dated 1992).
Like-named read-outs stand apart in the source and are kept apart here.

How the values were obtained:
Plasmodium berghei = test: Causal prophylactic activity on OF1 mice infected with Plasmodium berghei; type: in vivo, P. berghei (ANKA), in Swiss OF1 mice; settings: for ED50 / ED100 / minimal effective dose: Plasmodium berghei, 3 h; for ED50: read-out: CPD50, causal prophylactic dose curing 50% of the infected and treated animals; for ED100: read-out: ED100, totally curative dose; for minimal effective dose: read-out: Minimal effective dose (MED); for PQ index: ratio CPD50 of PQ/CPD50 of the compound
Experimental: Primaquine and its derivatives are tested in the model of malaria in rodents employing the infection of mice with Plasmodium berghei, the sporozoites originating from infected Anopheles stephensi mosquitoes. This model, developed by Most H., Herman R. & Schoenfeld C. (1967), Am. J. Trop. med. Hyg. 16, 572-575, enables the casual prophylatic (tissue schizonticidal) activity of new therapeutic compounds to be determined.
The procedure used is that derived from Most H. & Montuori W.A. (1975), Am. J. Trop. Med. Hyg. 24, 179-189. It involves the system P. berghei (ANKA)/Anopheles stephensi/Swiss OF1 mice. The ANKA strain of P. b. berghei is maintained cyclically on Anopheles stephensi. The Swiss OF1 strain mouse is especially sensitive to P. b. berghei, which produces an invariably fatal infection.
The legs, wings and abdomen are removed from female mosquitoes (80 to 100 individuals per preparation) and the latter are then homogenized at 4° C. in MEM medium (GIBCO) containing 10% of fetal calf serum using a glass Potter. The sporozoite suspension is then purified from the mosquito debris by two successive centrifugations (2 min at 50 g and 5 min at 200 g) and the collected supernatant is stored at 4° C. After counting in a Petroff-Hausser chamber, the number of parasites is adjusted by dilution with the same cold medium to a density of 2×10^5 sporozoites/ml.
The causal prophylactic activity of the compounds, that is to say the dose enabling 50% of the infected animals to be cured (CPD50) is obtained by analysis of the logits of the response (expressed as a % LTS) as a function of the dose (mg PQ/kg).
A volume of 0.5 ml of the suspension containing 10^5 sporozoites is injected i.v. into female Swiss OF1 mice weighing 20 to 25 g, used for the therapeutic tests. 1.2. Chemotherapeutic treatments
Groups of 20 to 25 mice, infected as described above, are treated with a single intravenous injection of primaquine diphosphate (PQ) or of its two derivatives in hydrochloride form, three hours after inoculation of the sporozoites. The volume injected is adjusted according to the weight of the mouse, on the basis of 0.25 ml for a weight of 25 g. The compounds are diluted in phosphatebuffered saline (PBS), pH 7.0, and the pH is adjusted to 7.0. Infected but untreated mice (5 per group), receive the buffer alone and serve to monitor the infectivity of the sporozoites.
The experimental mice are kept for a period of 50 days. The development of the parasitemia is followed by daily examination of blood smears stained for 60 min with 5% Giemsa in Sorensen buffer at pH 7.2, from day 5 up to day 15. The number of infected animals can thus be determined.
The animals infected using P. berchei sporozoites are treated three hours later with a single i.v. injection of the compounds. This test enables the casual prophylactic activity of the compounds, that is the dose enabling 50% of the infected animals to be cured (CPD50), to be defined. The dose is always expressed as mg of PQ diphosphate per kg.
The animals infected using P. berghei sporozoites are treated three hours later with a single i.v. injection of the compounds. This test enables the casual prophylactic activity of the compounds, that is the dose enabling 50% of the infected animals to be cured (CPD50), to be defined. The dose is always expressed as mg of PQ diphosphate per kg.

female Swiss OF1 mice = test: Acute toxicity in mice after a single i.v. administration; type: in vivo; settings: for Maximum tolerated dose (MTD): weight loss not exceeding 5% during 5 days
Experimental: (§1) The acute toxicity in terms of a single administered dose is determined on female Swiss OF1 mice weighing 22 to 25 g. A series of dilutions of each compound is injected intravenously into groups of 10 mice (0.1 ml per 10 g of weight).
(§2) The lethal dose for 50% of mice (LD50) is determined by linear regression of the logits of the percentage of surviving animals as a function of the logarithm of the dose injected (in mg PQ diphosphate equivalent/kg) (Logit Weighted Transformation, Berkson J., 1953; J. Am. Stat. Assoc. 48, 565-599).
(§3) ^a : The products are administered i.v. to groups of 10 female Swiss
(§4) ^b : Maximum tolerated dose (MTD), defined as the highest dose
(§5) The acute toxicity in terms of a single administered dose is determined under the same conditions and according the protocol of Example 3.

[1] = as above; type: in vivo; settings: mouse, in vivo, iv, single i.v., mg PQ diphosphate equivalent/kg; for MTD: weight loss not exceeding 5% during 5 days, read-out: Maximum tolerated dose (MTD)
Experimental: as §1, §2, §3, §4, §5

[2] = Stability in the presence of fetal calf serum; type: in vitro ADME
Experimental: The influence of serum on the stability of primaquine (PQ) and its derivatives is determined by incubating these compounds at 37° C. at a concentration of 100 μg/ml in 95% fetal calf serum (FCS, Flow Laboratories) or human serum and phosphate-buffered saline (0.15 M PBSA, pH 7.2) as a control. All the solutions are sterilized by filtration on a Millipore filter (Millex GV) of porosity 0.20 μm.
At interval of time, 1-ml samples are withdrawn and the serum proteins are then extracted from them by precipitation with acetonitrile. For this purpose, an identical volume of acetonitrile is added to each sample. After vigorous mixing in a Vortex mixer, the samples are left for 1 hour at 4° C. and protected from light and then centrifuged for 5 minutes at 12,000 g. The supernatants are collected and then analyzed by HPLC (20- to 50-μl aliquot) under the standard conditions.
The results for the stability of primaquine and its two derivatives in the presence of fetal calf serum are recorded in Table 1; the results are expressed as a % of the initial concentration (time 0) after extraction.
^a : The compounds are incubated at 37° C. in the presence of
fetal calf serum (95% final) and then analyzed by spectrophotometry after
^b : The results represent the relative concentration of primaquine
(PQ) and of derivatives (PQX) in terms of the incubation time, expressed
as a percentage of the initial concentration (time 0) after extraction

[3] = single i.v. three hours after sporozoites, mg PQ diphosphate equivalent/kg
[4] = single i.v., mg PQ diphosphate equivalent/kg
[5] = fetal calf serum 95%, 37° C., 0 h
[6] = iv, single i.v. three hours after sporozoites, mg PQ diphosphate equivalent/kg

COc1cc(NC(C)CCCN)c2ncccc2c1 (centres unmarked) [Primaquine, 6-methoxy-8-(4-amino-1-methylbutylamino)quinoline, reference compound]
ED50 (Plasmodium berghei; iv): 18.8 mg/kg | ED100 (Plasmodium berghei; iv): ~54 mg/kg | minimal effective dose (Plasmodium berghei; iv): 6.5 mg/kg | PQ index (Plasmodium berghei): 1.00 | CPD50, causal prophylactic dose curing 50% of the infected and treated animals (Plasmodium berghei; [3]): 18.8 (1.3) mg/kg | ED100, totally curative dose (Plasmodium berghei; [3]): TOX | Maximum tolerated dose (MTD) (female Swiss OF1 mice; [4]): 24 (2.1) mg/kg | MTD [1]: 24 mg/kg | remaining at 1 h ([2]; bovine, fetal calf serum, fetal calf serum 95%, 37° C., 1 h, read-out: Relative concentration of compound (% of initial concentration)): 98% | remaining at 2 h ([2]; bovine, fetal calf serum, fetal calf serum 95%, 37° C., 2 h, read-out: Relative concentration of compound (% of initial concentration)): 87% | remaining at 3 h ([2]; bovine, fetal calf serum, fetal calf serum 95%, 37° C., 3 h, read-out: Relative concentration of compound (% of initial concentration)): 77% | remaining at 6 h ([2]; bovine, fetal calf serum, fetal calf serum 95%, 37° C., 6 h, read-out: Relative concentration of compound (% of initial concentration)): 34% | Relative concentration of compound (% of initial concentration) [2, 5]: 100% | Second HPLC peak (Y) from primaquine [2, 5]: 0% | Second HPLC peak (Y) from primaquine ([2]; fetal calf serum 95%, 37° C., 1 h): 0% | Second HPLC peak (Y) from primaquine ([2]; fetal calf serum 95%, 37° C., 2 h): 5% | Second HPLC peak (Y) from primaquine ([2]; fetal calf serum 95%, 37° C., 3 h): 10% | Second HPLC peak (Y) from primaquine ([2]; fetal calf serum 95%, 37° C., 6 h): 11% | Second HPLC peak (Y) from primaquine ([2]; fetal calf serum 95%, 37° C., 24 h): 5% | Relative concentration of compound (% of initial concentration) ([2]; fetal calf serum 95%, 37° C., 24 h, 1440 min): 2% | Relative concentration of compound (% of initial concentration) ([2]; fetal calf serum 95%, 37° C., 24 h, listed as primaquine, 1440 min): 7% | Second peak (Y), maximum ([2]; fetal calf serum, after 2 hours' incubation): ≤ 10% | Stability in the presence of serum ([2]; 37° C.): unstable

COc1cc(NC(C)CCCNC(=O)CC[C@H](N)C(=O)O)c2ncccc2c1 (stereo partly drawn) [gGLU-PQ, N-(γ-L-glutamyl)primaquine]
ED50 (Plasmodium berghei; [6]): 8.7 mg/kg | ED100 (Plasmodium berghei; [6]): 24 mg/kg | minimal effective dose (Plasmodium berghei; [6]): 3.2 mg/kg | CPD50, fold lower than for PQ (Plasmodium berghei; iv): 22 -fold | Activity compared with PQ (Plasmodium berghei; mouse, in vivo): at least twice as active as PQ | PQ index (Plasmodium berghei): 2.15 | CPD50, causal prophylactic dose curing 50% of the infected and treated animals (Plasmodium berghei; [3]): 8.7 (0.7) mg/kg | ED100, totally curative dose (Plasmodium berghei; [3]): 24.2 (9.8) mg/kg | Fold less toxic than PQ (female Swiss OF1 mice; mice, i.v.): at least 5 -fold | LD50 (female Swiss OF1 mice; [4]): 169 (9) mg/kg | Maximum tolerated dose (MTD) (female Swiss OF1 mice; [4]): 117 (13) mg/kg | LD50 [1]: 169 mg/kg | MTD [1]: 117 mg/kg | remaining at 1 h ([2]; bovine, fetal calf serum 95%, 37° C., 1 h, read-out: Relative concentration of compound (% of initial concentration)): 96% | metabolised at 1 h ([2]; bovine, fetal calf serum 95%, 37° C., 1 h, read-out: Relative concentration of primaquine (PQ) from derivative): 3% | remaining at 2 h ([2]; bovine, fetal calf serum 95%, 37° C., 2 h, read-out: Relative concentration of compound (% of initial concentration)): 95% | metabolised at 2 h ([2]; bovine, fetal calf serum 95%, 37° C., 2 h, read-out: Relative concentration of primaquine (PQ) from derivative): 4% | remaining at 3 h ([2]; bovine, fetal calf serum 95%, 37° C., 3 h, read-out: Relative concentration of compound (% of initial concentration)): 94% | metabolised at 3 h ([2]; bovine, fetal calf serum 95%, 37° C., 3 h, read-out: Relative concentration of primaquine (PQ) from derivative): 4% | remaining at 6 h ([2]; bovine, fetal calf serum 95%, 37° C., 6 h, read-out: Relative concentration of compound (% of initial concentration)): 83% | metabolised at 6 h ([2]; bovine, fetal calf serum 95%, 37° C., 6 h, read-out: Relative concentration of primaquine (PQ) from derivative): 4% | remaining at 24 h ([2]; bovine, fetal calf serum 95%, 37° C., 24 h, read-out: Relative concentration of compound (% of initial concentration)): 51% | metabolised at 24 h ([2]; bovine, fetal calf serum 95%, 37° C., 24 h, read-out: Relative concentration of primaquine (PQ) from derivative): 4% | Duration of stability in serum ([2]; fetal calf serum): at least 3 hours | Relative concentration of compound (% of initial concentration) [2, 5]: 98 (1) % | Relative concentration of primaquine (PQ) from derivative [2, 5]: 2 (1) % | Stability in the presence of serum ([2]; 37° C.): a gradual decrease in the relative concentration is observed after 6 hours' incubation
